Measurements published in PubChem BioAssay AID330 (DTP/NCI, 2004).
Where “and” joins values, the source holds several entries; their conditions need not be identical. Identical values can stand only once. Inconclusive results and toxic doses are left out.

System: P388 leukemia ip, CD2F1 mice, survival T/C
Assay: NCI In Vivo Anticancer Drug Screen. Data for tumor model P388 Leukemia (intraperitoneal) in CD2F1 (CDF1) mice
Conditions: endpoint: median survival time, higher = longer survival
How it was run: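 Mice carrying the transplanted tumor received test compound or vehicle. Survival was recorded in each group, and the value is the treated-group measurement divided by that of the vehicle-treated control group.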

[1] = dose: 50.0 mg/kg/injection, schedule: Q01DX009 (ip), vehicle: Klucel (hydroxypropylcellulose) (HPC)
[2] = dose: 100.0 mg/kg/injection, schedule: Q01DX009 (ip), vehicle: Klucel (hydroxypropylcellulose) (HPC)
[3] = dose: 200.0 mg/kg/injection, schedule: Q01DX009 (ip), vehicle: Klucel (hydroxypropylcellulose) (HPC)

## CC(/C=C/c1ccccc1)=N\Nc1ccc(Cl)c(Cl)c1
[1]
  T/C: 102 % of control
[2]
  T/C: 102 % of control
[3]
  T/C: 100 % of control

## CSC(=S)n1nc(-c2cccs2)c(N=Nc2ccccc2)c1C(F)(F)F
dose: 7.5 mg/kg/injection, schedule: Q01DX005 (ip), vehicle: saline with Tween-80
  T/C: 102 % of control
dose: 15.0 mg/kg/injection, schedule: Q01DX005 (ip), vehicle: saline with Tween-80
  T/C: 112 % of control
dose: 30.0 mg/kg/injection, schedule: Q01DX005 (ip), vehicle: saline with Tween-80
  T/C: 112 % of control

## CN(/N=C1\C(=O)Nc2ccccc21)c1ccccc1
dose: 50.0 mg/kg/injection, schedule: Q01DX005 (ip), vehicle: saline with Tween-80
  T/C: 95 % of control
dose: 100.0 mg/kg/injection, schedule: Q01DX005 (ip), vehicle: saline with Tween-80
  T/C: 93 % of control
dose: 200.0 mg/kg/injection, schedule: Q01DX005 (ip), vehicle: saline with Tween-80
  T/C: 88 % of control

## NC(=O)C1C2CCC(O2)C1C(=O)O (centres undefined)
dose: 1.56 mg/kg/injection, schedule: Q01DX005 (ip), vehicle: Klucel (hydroxypropylcellulose) (HPC)
  T/C: 99 % of control
dose: 3.12 mg/kg/injection, schedule: Q01DX005 (ip), vehicle: Klucel (hydroxypropylcellulose) (HPC)
  T/C: 97 % of control
dose: 6.25 mg/kg/injection, schedule: Q01DX005 (ip), vehicle: Klucel (hydroxypropylcellulose) (HPC)
  T/C: 95 % of control

## CCN(CC)CCOC(=O)Nc1cc(Cl)cc(Cl)c1
dose: 60.0 mg/kg/injection, schedule: Q01DX005 (ip), vehicle: saline with Tween-80
  T/C: 100 % of control
dose: 120.0 mg/kg/injection, schedule: Q01DX005 (ip), vehicle: saline with Tween-80
  T/C: 101 % of control
dose: 240.0 mg/kg/injection, schedule: Q01DX005 (ip), vehicle: saline with Tween-80
  T/C: 100 % of control

## CCOC(=O)Nc1nncs1
dose: 12.5 mg/kg/injection, schedule: Q01DX009 (ip), vehicle: distilled water + Tween-80
  T/C: 103 % of control
dose: 25.0 mg/kg/injection, schedule: Q01DX009 (ip), vehicle: distilled water + Tween-80
  T/C: 105 % of control and 108 % of control
dose: 50.0 mg/kg/injection, schedule: Q01DX009 (ip), vehicle: distilled water + Tween-80
  T/C: 108 % of control
dose: 100.0 mg/kg/injection, schedule: Q01DX009 (ip), vehicle: distilled water + Tween-80
  T/C: 100 % of control
dose: 200.0 mg/kg/injection, schedule: Q01DX009 (ip), vehicle: distilled water + Tween-80
  T/C: 151 % of control and 168 % of control
dose: 400.0 mg/kg/injection, schedule: Q01DX009 (ip), vehicle: distilled water + Tween-80
  T/C: 108 % of control

## COC(=O)C1=C(C(=O)OC)C2C=CC1C1C(OC(C)=O)C(OC(C)=O)C21 (centres undefined)
[1]
  T/C: 100 % of control
[2]
  T/C: 100 % of control
[3]
  T/C: 107 % of control

## CC1=C(C)C(=O)C2=C(OCCCO2)C1=O
dose: 15.0 mg/kg/injection, schedule: Q01DX005 (ip), vehicle: Klucel (hydroxypropylcellulose) (HPC)
  T/C: 98 % of control
dose: 30.0 mg/kg/injection, schedule: Q01DX005 (ip), vehicle: Klucel (hydroxypropylcellulose) (HPC)
  T/C: 96 % of control
dose: 60.0 mg/kg/injection, schedule: Q01DX005 (ip), vehicle: Klucel (hydroxypropylcellulose) (HPC)
  T/C: 98 % of control

## O=[N+]([O-])c1ccc(N2c3ccccc3SC2c2ccco2)c([N+](=O)[O-])c1 (centres undefined)
dose: 1.5 mg/kg/injection, schedule: Q01DX005 (ip), vehicle: saline with Tween-80
  T/C: 102 % of control
dose: 3.0 mg/kg/injection, schedule: Q01DX005 (ip), vehicle: saline with Tween-80
  T/C: 102 % of control
dose: 6.0 mg/kg/injection, schedule: Q01DX005 (ip), vehicle: saline with Tween-80
  T/C: 91 % of control

## Cc1cc(N(CCO)CCO)c2ccc3ccccc3c2n1
dose: 50.0 mg/kg/injection, schedule: Q01DX009 (ip), vehicle: saline with Tween-80
  T/C: 101 % of control
dose: 100.0 mg/kg/injection, schedule: Q01DX009 (ip), vehicle: saline with Tween-80
  T/C: 108 % of control
dose: 200.0 mg/kg/injection, schedule: Q01DX009 (ip), vehicle: saline with Tween-80
  T/C: 97 % of control

## CCOC(=O)C(Cc1ccc(N)cc1)N1C(=O)c2ccccc2C1=O (centres undefined)
dose: 50.0 mg/kg/injection, schedule: Q01DX009 (ip), vehicle: distilled water + Tween-80 + alcohol
  T/C: 100 % of control
dose: 100.0 mg/kg/injection, schedule: Q01DX009 (ip), vehicle: distilled water + Tween-80 + alcohol
  T/C: 95 % of control
dose: 200.0 mg/kg/injection, schedule: Q01DX009 (ip), vehicle: distilled water + Tween-80 + alcohol
  T/C: 91 % of control

## O=C(O)CC(NC(=O)CCl)c1cccs1 (centres undefined)
dose: 50.0 mg/kg/injection, schedule: Q01DX009 (ip), vehicle: saline
  T/C: 97 % of control
dose: 100.0 mg/kg/injection, schedule: Q01DX009 (ip), vehicle: saline
  T/C: 94 % of control
dose: 200.0 mg/kg/injection, schedule: Q01DX009 (ip), vehicle: saline
  T/C: 98 % of control
